The results in this text go back to PubChem BioAssay (NCI).

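96-well plates; 48 h exposure; 5 concentrations. Endpoints by linear interpolation between flanking doses. Not reached: highest tested concentration assigned. GI50 marks 50% less growth. Definition used: TGI = concentration required for complete inhibition of growth.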

Among the test systems are CCRF-CEM leukemia; 786-0 renal; OVCAR-4 ovarian; ACHN renal; TK-10 renal; SNB-19 CNS; RXF 393 renal; NCI-H23 lung; NCI-H460 lung; MDA-MB-231 breast.
Common to all, as to assay: growth of human tumour cells (NCI), 48 h

For the compound `CCOP1(=O)C=C(C)C(=C(Cl)Cl)C(C)=C1` (stereo not drawn), the TGI is 68.6 µM in the assay with CCRF-CEM leukemia; more than 100 µM with 786-0 renal; 29.1 µM in the assay on OVCAR-4 ovarian; 68.1 µM in the assay on ACHN renal; 77.2 µM with TK-10 renal; 50.3 µM in the assay on SNB-19 CNS. In addition, the TGI in the assay with RXF 393 renal was 30.7 µM; in the assay with NCI-H23 lung it was 38 µM; in the assay with NCI-H460 lung, more than 100 µM.

Turning to `Fc1ccc(Nc2nc3ccccc3c3occc23)cc1`, the GI50 in the assay with 786-0 renal was 1.03 µM; in the assay with OVCAR-4 ovarian it was 6 µM; in the assay on ACHN renal, 1.4 µM; with TK-10 renal, 2.06 µM; in the assay with MDA-MB-231 breast, 1.07 µM; with SNB-19 CNS, 7.96 µM. The GI50 is 12.6 µM in the assay with RXF 393 renal, 1.48 µM with NCI-H23 lung and 4.61 µM with NCI-H460 lung. For the same compound, the TGI amounted to 10.6 µM in the assay on 786-0 renal; 25.5 µM in the assay with OVCAR-4 ovarian; 15.8 µM in the assay with ACHN renal; 6.67 µM in the assay with TK-10 renal; 19.9 µM in the assay with MDA-MB-231 breast; 24.1 µM with SNB-19 CNS. Besides, the values for the TGI in the assay on RXF 393 renal, in the assay on NCI-H23 lung and in the assay on NCI-H460 lung were 31.5 µM, 4.86 µM and 19 µM, respectively.

As to `Cc1cc(Cl)ccc1NC(=O)C(=O)C(C(=O)c1ccccc1)C1OC(=O)c2ccccc21` (stereo not drawn), the TGI in the assay with CCRF-CEM leukemia, in the assay with 786-0 renal, with OVCAR-4 ovarian, with ACHN renal, in the assay with TK-10 renal and with SNB-19 CNS was more than 100 µM throughout. Further, the TGI in the assay on RXF 393 renal, with NCI-H23 lung and in the assay with NCI-H460 lung was more than 100 µM throughout.

With `CCCCCC[C@H](C)NC(=O)c1ccc(Nc2nc3ccccc3c3occc23)cc1`, the GI50 is 3.68 µM in the assay with CCRF-CEM leukemia; 2.35 µM in the assay on 786-0 renal; 13.7 µM in the assay on ACHN renal; 5.26 µM with TK-10 renal; 12.6 µM in the assay on MDA-MB-231 breast; 5.15 µM with SNB-19 CNS. The GI50 is 3.88 µM with RXF 393 renal, 2.41 µM in the assay with NCI-H23 lung and 3.81 µM with NCI-H460 lung. For the same compound, the TGI is more than 100 µM in the assay on CCRF-CEM leukemia; 7.71 µM in the assay with 786-0 renal; 40 µM in the assay with ACHN renal; 33.5 µM with TK-10 renal; 51.8 µM in the assay with MDA-MB-231 breast; more than 100 µM in the assay on SNB-19 CNS. The TGI in the assay with RXF 393 renal is 13.7 µM; in the assay on NCI-H23 lung, 6.08 µM; in the assay on NCI-H460 lung, more than 100 µM.

Consider `CC1C2CC=CC(=O)[C@@]2(C)CCC12OCCO2` (stereo partly drawn), for which the TGI in the assay on CCRF-CEM leukemia, in the assay with 786-0 renal, in the assay with OVCAR-4 ovarian, with ACHN renal, with TK-10 renal and in the assay on SNB-19 CNS was more than 100 µM throughout. Besides, the TGI in the assay with RXF 393 renal, in the assay on NCI-H23 lung and with NCI-H460 lung was more than 100 µM each time.

Consider `CCCCCCCC(=O)[O][Hg][CH2]C1COC([CH2][Hg][O]C(=O)CCCCCCC)CO1` (stereo not drawn), for which the GI50 is 1.91 µM in the assay on CCRF-CEM leukemia; 7.95 µM in the assay with 786-0 renal; 13.9 µM in the assay with ACHN renal; 19.6 µM in the assay with TK-10 renal; 20.7 µM in the assay on MDA-MB-231 breast; 16.1 µM with SNB-19 CNS. The GI50 in the assay on RXF 393 renal is 18.5 µM; with NCI-H23 lung, 14.2 µM; in the assay on NCI-H460 lung it was 18.2 µM. Also, the TGI is more than 100 µM in the assay with CCRF-CEM leukemia; 30.4 µM in the assay with 786-0 renal; 26.9 µM in the assay on ACHN renal; 33.7 µM with TK-10 renal; 50.8 µM with MDA-MB-231 breast; 29.5 µM in the assay with SNB-19 CNS. Moreover, the TGI in the assay with RXF 393 renal was found to be 32.5 µM; in the assay on NCI-H23 lung, 28.6 µM; with NCI-H460 lung it was 37.4 µM.

For `CCCCN(CCCC)CCCn1cnc2ncccc2c1=O`, the TGI in the assay with CCRF-CEM leukemia, with 786-0 renal, in the assay with OVCAR-4 ovarian, with ACHN renal, in the assay with TK-10 renal and with SNB-19 CNS was more than 100 µM throughout. The TGI in the assay on RXF 393 renal, with NCI-H23 lung and in the assay on NCI-H460 lung was more than 100 µM in each case.

With `COc1ccc(/C=C2\c3cc(OC)c(OC)c(OC)c3CC[C@@H]2O)cc1F`, the GI50 is 0.815 µM with CCRF-CEM leukemia; 0.492 µM in the assay with 786-0 renal; 1.1 µM in the assay with OVCAR-4 ovarian; 0.815 µM with ACHN renal; 0.958 µM in the assay with MDA-MB-231 breast; 0.855 µM with SNB-19 CNS. For the same compound, the values for the GI50 in the assay with NCI-H23 lung and in the assay with NCI-H460 lung were 0.318 µM and 0.299 µM, respectively. Also, the TGI in the assay with CCRF-CEM leukemia, with 786-0 renal, in the assay on OVCAR-4 ovarian, with ACHN renal, in the assay on MDA-MB-231 breast and in the assay with SNB-19 CNS was more than 100 µM throughout. Also, the results for the TGI in the assay on NCI-H23 lung and in the assay with NCI-H460 lung were more than 100 µM and 16.9 µM, respectively.

Regarding `C=C1C(=O)O[C@H]2[C@H]1CC/C(COC(=O)NCCCCCCCCNC(=O)OC/C1=C/CC[C@@]3(C)O[C@H]3[C@H]3OC(=O)C(=C)[C@@H]3CC1)=C\CC[C@@]1(C)O[C@@H]21`, the GI50 was 0.255 µM in the assay on CCRF-CEM leukemia; 0.244 µM with 786-0 renal; 0.521 µM with OVCAR-4 ovarian; 0.258 µM in the assay on ACHN renal; 0.284 µM in the assay with TK-10 renal; 0.2 µM with MDA-MB-231 breast. For the same compound, the GI50 was 0.162 µM in the assay on RXF 393 renal, 0.485 µM in the assay on NCI-H23 lung and 1.75 µM in the assay on NCI-H460 lung. Besides, the TGI in the assay on CCRF-CEM leukemia amounted to 0.837 µM; in the assay with 786-0 renal it was 0.646 µM; in the assay on OVCAR-4 ovarian, 1.86 µM; with ACHN renal, 0.662 µM; in the assay with TK-10 renal, 0.855 µM; with MDA-MB-231 breast it was 0.458 µM. The TGI in the assay with RXF 393 renal worked out at 0.322 µM; in the assay on NCI-H23 lung, 1.74 µM; in the assay with NCI-H460 lung it was 3.98 µM.

Turning to `COC[C@H](C)N=CN1CCc2ccccc2C1(Cc1ccccc1)Cc1ccccc1`, the TGI in the assay on CCRF-CEM leukemia is 56.7 µM; with 786-0 renal, 30.3 µM; in the assay with OVCAR-4 ovarian, 35.6 µM; in the assay with ACHN renal it was 59.8 µM; in the assay on TK-10 renal, 38.8 µM; in the assay with SNB-19 CNS it was 32.5 µM. In addition, the TGI with RXF 393 renal came to 32.7 µM; with NCI-H23 lung, 39.8 µM; with NCI-H460 lung, 25.9 µM.
